Article PMC3499629 (Journal of medicinal chemistry, 2012)
Entries after “also recorded” stand apart in the source; their conditions may differ.

Target: Gag' (GST-Gag) (Human immunodeficiency virus type 1 group M subtype B, UniProt P12493)
Format: binding, HIV-1
Details: DSF validation

## C=C(C)[C@@H]1CC[C@]2(C(=O)O)CC[C@]3(C)[C@H](CC[C@@H]4[C@@]5(C)CC[C@H](OC(=O)CC(C)(C)C(=O)O)C(C)(C)[C@@H]5CC[C@]43C)[C@@H]12 [Bevirimat]
  thermal stability (Tm) of Gag' in complex: increased the thermal stability; also recorded: higher melting temperature
